Assay [1] relates to HCC2935. Kind of assay: Combinatorial activity in LUAD cell line HCC2935. It is filed as cell-based. Conditions: Homo sapiens; HCC2935, WT; single agent; read-out: (nM) s.a. As for the experimental part:
(§1) Combinatorial activity of PF-07104091 and PF-07220060 was assessed in LUADs as single agents (s.a.) or in combination.

For assay [2], the system named is NCIH2023. Kind of assay: Combinatorial activity in LUAD cell line NCIH2023. It is filed as cell-based. Conditions: NCI-H2023; NCIH2023, WT; single agent; read-out: (nM) s.a. The procedure:
as §1

The test system of assay [3] is NCI-H1792 lung adenocarcinoma (LUAD) cells. Kind of assay: Spheroid growth inhibition (SGI) assay, NCI-H1792. It counts as cell-based. The note with it: NCI-H1792 spheroids; 30 nM palbociclib, 300 nM PF-07220060, 300 nM PF-07104091; 14 days. The procedure:
NCI-H1792 and NCI-H23 lung adenocarcinoma (LUAD) cells lines were obtained from ATCC and maintained in RPMI 1640 medium supplemented with 10% fetal bovine serum and penicillin-streptomycin as per ATCC guidelines. Cells were maintained in humidified incubator at 37° C. with 5% CO2.
Spheroid assays were performed in 96 well ultralow attachment plates (ULA-96U) from Nexcelom & Thermo Fisher Scientific. […] To aid spheroid formation, dispensed cells were centrifuged at 220×g for 6 minutes in the ultralow attachment plates and allowed to form compact spheroids for 4 days prior to the initiation of treatment. […] DMSO (0.01%) was used as the vehicle control. DMSO and all compounds were diluted in cell medium. Medium and compounds were replenished twice per week, with 3 and 4-day intervals. Replenishment was executed by aspirating 150 μL of medium per well without disturbing the spheroid and then adding the same volume of premixed medium/compound solution to spheroids. Spheroid diameter was quantified immediately following each medium change twice a week (on every 3rd or 4th day) throughout the duration of the assay.
Average diameters of tumor spheroids were plotted in GraphPad Prism 8 and the AUC calculated. AUC baseline was determined by the average tumor spheroid diameter at Day 0 in the vehicle (DMSO) controls. Spheroid growth inhibition, or SGI, was calculated as follows: SGI=(1−AUC treatment/AUC DMSO)×100%. SGI for all treatment arms was derived at the timepoint when the vehicle (DMSO) treated spheroids reach their maximal diameter (usually close to 1 mm but this can differ among cell lines); this corresponds to the last time point taken for the vehicle (DMSO) treated spheroids. SEM was calculated based on n=10 to 12 wells per test group.
Growth of lung adenocarcinoma multicellular tumor spheroids (MCTS) was monitored over time to assess: (i) amplitude of response (SGI) and (ii) duration of response to the CDK4 inhibitor PF-07220060 as a single agent, and in combination with the CDK2 inhibitor PF-07104091.

Assay [4] concerns HCC1428 breast cancer model. Briefly: In vivo efficacy, HR+/HER2− HCC1428 breast cancer model (Example 3). Also on record: species or system NSG mice. Conditions: HCC1428, Day 42; PO BID: PF-07104091 150 mpk, PF-07220060 60 mpk, palbociclib 10 mpk. As for the experimental part:
Female NSG mice (Jackson Lab) were subcutaneously implanted with fragment (27 mm^3 to 64 mm^3 size) into the dorsal region. All mice for T47D, HCC1428 and ST941 PBR studies were supplemented with 8.5 μg/mL estradiol water (β-Estradiol Sigma-Aldrich, cat #E2758-5G) and gave ad libitum till end of study. For the in vivo efficacy studies, tumor volume and body weights were measured twice a week. Tumor volume was calculated using the [(Length×Width×Width)/2)] formula. TGI was calculated as 100*(1−ΔT/ΔC). The ΔC (ΔT) was obtained by subtracting the mean tumor burden in the vehicle (treated) group on the first day of treatment (Day 0) from the mean tumor burden in vehicle (treated) group on the assessment day. Statistical analysis was performed using ANCOVA when the mean tumor volume in vehicle treated mice reached tumor cutoff size.
The HCC1428 model was established by implanting passage 4 tumor fragments into recipient mice. To establish the HCC1428 donor mice, tumor cells (5×10^6 cell/mouse with 50% Cultrex® Basement Membrane Matrix) were subcutaneously implanted in female NSG mice. Once reaching a range of 700 to 800 mm^3, donor tumors were subsequently transplanted into secondary recipient mice for a study expansion. […] PF-07104091 (lot 016), PF-07220060 (lot 019) and PD-0332991 (lot GR08498) were administered (PO.) BID (7 hr apart). All mice received treatment continuously until Day 42. TGI was assessed on Day 42 post first dose.

For assay [5], the system named is CAL12T. Kind of assay: Combinatorial activity in LUAD cell line CAL12T. It is filed as cell-based. Conditions: Homo sapiens, CAL-12T, WT, single agent, read-out: (nM) s.a. As for the experimental part: as §1
Assay [6] concerns A427. Kind of assay: Combinatorial activity in LUAD cell line A427. It counts as cell-based. The note with it: Homo sapiens, A-427; A427, KRAS G12D; single agent; read-out: (nM) s.a. As for the experimental part: as §1
Assay [7] deals with A549. Briefly: Combinatorial activity in LUAD cell line A549. It is filed as cell-based. Conditions: Homo sapiens; A549, WT; single agent; read-out: (nM) s.a. As for the experimental part:
as §1

Assay [8] relates to CALU6. Briefly: Combinatorial activity in LUAD cell line CALU6. Conditions: Homo sapiens, Calu-6; CALU6, WT; single agent; read-out: (nM) s.a. It counts as cell-based. As for the experimental part:
as §1

For assay [9], the system named is NCI-H2347. Kind of assay: Combinatorial activity in LUAD cell line NCI-H2347. It counts as cell-based. The note with it: Homo sapiens; NCI-H2347, KRAS L19F; single agent; read-out: (nM) s.a. As for the experimental part:
as §1

The subject of assay [10] is T47D breast cancer cell line. Briefly: Cell proliferation combination assay (Loewe Volume, CI), T47D. Conditions: T-47D cells; for Best CI: Best CI Level 70. It is filed as cell-based, Human. As for the experimental part: The combination effects of PF-07104091 and PF-07220060 were evaluated in a cell proliferation assay with MCF7 and T47D BC cell lines.
Drug combinations were analyzed using the Dose Equivalence Principle, and the Loewe Volume score. When modeling synergy using the Dose Equivalence Principle, the Loewe Volume score for the combination compounds should be greater than the compound self-cross controls, and the Combination Index (C) score for the combination compounds should be less than compound self-cross controls. […] The isobolograms set to an anti-proliferation threshold at 70% confirmed a synergistic response.

Molecules are shown by their SMILES.

As to `COCc1cc(C(=O)Nc2cc([C@H]3CC[C@@H](OC(=O)NC(C)C)C3)[nH]n2)n(C)n1` [PF-07104091, (1R,3S)-3-[3-({[3-(methoxymethyl)-1-methyl-1H-pyrazol-5-yl]carbonyl}amino)-1H-pyrazol-5-yl]cyclopentyl propan-2-ylcarbamate], the IC50 in assay [1] is 280 nM; in assay [2] it was more than 450 nM; in assay [5], 220 nM; in assay [6], 276 nM; in assay [7], 574 nM; in [8], 268 nM. Also, the IC50 in [9] stood at 364 nM. In assay [3], the “SGI (%)” value is 12%. For the same compound, the TGI % in assay [4] came out at 95%. For the same compound, the “Loewe Volume” value in [10] was found to be 0.01. Further, the “Best CI” value in [10] came out at 0.95.
On to `CC(C)n1c(C(C)(C)O)nc2c(F)cc(-c3nc(N[C@@H]4CCOC[C@H]4O)ncc3Cl)cc21` [PF-07220060, 1,5-anhydro-3-({5-chloro-4-[4-fluoro-2-(2-hydroxypropan-2-yl)-1-(propan-2-yl)-1H-benzimidazol-6-yl]pyrimidin-2-yl}amino)-2,3-dideoxy-D-threo-pentitol], for which the IC50 was found to be 141 nM in [1]; 310 nM in assay [2]; 210 nM in assay [5]; 124 nM in assay [6]; 814 nM in assay [7]; 155 nM in assay [8]. Further, the IC50 in assay [9] was found to be 70 nM. Besides, the “SGI (%)” value in [3] was 81%. This compound showed a TGI % in [4] of 89%. In assay [10], the “Loewe Volume” value is recorded as 0.00. Also, the “Best CI” value in assay [10] is on record as 0.97.

The values are drawn from patent US20250041277A1, “METHODS AND DOSING REGIMENS COMPRISING A CDK2 INHIBITOR AND A CDK4 INHIBITOR FOR TREATING CANCER” (PFIZER INC., priority 2021, published 2025).
